Results reported in patent US10662193B2, “Carbazole and carboline compounds for use in the diagnosis, treatment, alleviation or prevention of disorders associated with amyloid or amyloid-like proteins” (AC IMMUNE SA, priority 2014, dated 2020).

How the values were obtained:
[1] = target: AD brain-enriched PHF (Homo sapiens, UniProt P10636); experiment: Assay 2 (filter trap): [3H]RefA radio-binding competition assay and Ki on PHF; details: [^3H]RefA 10 nM, PHF diluted 1/80, compound 0.12 nM to 50 μM
Method: Displacement of [^3H]RefA by Compounds of this Invention
50 g of frontal lobe tissue from post-mortem brain of an Alzheimer's disease (AD) patient were obtained from the London Tissue Bank. The patient was a […] and died […]. The brain sample was collected 5 hours post-mortem and characterized for Braak disease stage (Braak, H.; Braak, E. Acta Neuropathol., 1991, 82, 239-259) as stage VI. For the enrichment of PHF's, around 15 g of the AD human brain was thawed on ice and homogenized with 50 ml of homogenization buffer [0.75 M NaCl in RAB buffer (100 mM 2-(N-morpholino) ethanesulfonic acid (MES), 1 mM EGTA, 0.5 mM MgSO4, 2 mM DTT, pH 6.8) supplemented with protease inhibitors (Complete; Roche 11697498001) in a glass Dounce homogenizer. The homogenate was then incubated at 4° C. for 20 min to let any residual microtubules depolymerize, before the homogenate was transferred into polycarbonate centrifuge bottles (16×76 mm; Beckman 355603) and centrifuged at 11,000 g (12,700 RPM) in an ultracentrifuge (Beckman, XL100K) for 20 min at 4° C. using the pre-cooled 70.1 rotor (Beckman, 342184). Pellets were kept on ice. Supernatants were pooled into polycarbonate bottles and centrifuged again at 100,000 g (38,000 RPM) for 1 h at 4° C. in the 70.1 Ti rotor to isolate PHF-rich pellets, whereas soluble tau remained in the supernatants. The pellets from the first and second centrifugations were re-suspended in 120 mL of extraction buffer [10 mM Tris-HCl pH 7.4, 10% sucrose, 0.85 M NaCl, 1% protease inhibitor (Calbiochem 539131), 1 mM EGTA, 1% phosphatase inhibitor (Sigma P5726 and P0044)]. The solution was then transferred into polycarbonate centrifuge bottles (16×76 mm; Beckman 355603) and centrifuged at 15,000 g (14,800 RPM) in an ultracentrifuge (Beckman, XL100K) for 20 min at 4° C. using the 70.1 Ti rotor. In the presence of 10% sucrose and at low speed centrifugation, most PHF remained in the supernatant whereas intact or fragmented NFTs and larger PHF aggregates were pelleted. The pellets were discarded. 20% Sarkosyl (Sigma L7414-10ML) was added to the supernatants to a final concentration of 1% and stirred at room temperature for 1 h. This solution was then centrifuged into polycarbonate bottles at 100,000 g (38,000 RPM) for 1 h at 4° C. in the 70.1 Ti rotor, and the pellets containing PHF-rich material were re-suspended in a total final volume of 1.5 mL of PBS, aliquoted and stored at −80° C.
[^3H]RefA Radio-Binding Competition Assay
AD brain-enriched PHF diluted 1/80 were incubated in the presence of [^3H]RefA at 10 nM and the example compounds of this invention at 2.5 μM (250× excess), for 45 minutes at 37° C. Samples were then analyzed by on GF/B filter plates as described above (in the section “[^3H]RefA radio-binding assay and determination of the dissociation constant (Kd)). Non-specific signal was determined again with an excess of un-labeled RefA and specific binding calculated by subtracting the non-specific signal from the total signal. Competition was calculated as percent, where 0% was defined as the specific binding in the presence of vehicle (2.8% DMSO in PBS) and 100% as the values obtained in the presence of excess cold RefA. Similar assays were performed to determine the competition of the cold compounds on [^3H]RefA on in vitro aggregated recombinant human tau or Abeta1-42 For both recombinant proteins, 20 μg/mL of aggregates were incubated with 10 nM of [^3H]RefA for recombinant human tau or 80 nM of [^3H]RefA for recombinant human Abeta1-42.
Determination of the Binding Affinity (Ki)
Samples were then analyzed on GF/B filter plates as described above and Ki values calculated using Prism V5 (GraphPad).

[2] = tested on: tau tangles on AD brain section; experiment: Assay 1: displacement of RefA on human AD brain sections (fluorescence); type: binding; details: for Selectivity (tau/Abeta): ratio of competition on tau tangles to competition on Aβ plaques
How it was run: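 Braak V-VI AD amygdala frozen sections were preincubated with test compound at 250 μM in 50% ethanol for 20 min at room temperature. Fluorescent RefA at 1 μM in 50% ethanol was then added for 20 min, imaged at 470 nm excitation, and tangles were quantified.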

[3] = tested on: Aβ plaques on AD brain section; experiment: Assay 1: displacement of Compound B on human AD brain sections (fluorescence); type: binding
How it was run: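 Frozen […] amygdala sections from Braak V-VI AD donors were preincubated with test compound at 250 μM in 50% ethanol for 20 min at room temperature, then with fluorescent Compound B at 1 μM for 20 min. Staining read at 365 nm excitation; plaques quantified by image analysis.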

Chain of AD brain-enriched PHF (P10636 623-708 limits assumed): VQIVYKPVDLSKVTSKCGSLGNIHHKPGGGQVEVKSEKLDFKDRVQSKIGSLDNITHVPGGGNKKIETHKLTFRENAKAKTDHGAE

| SMILES | Ki [1] [nM] | Competition on AD brain section tau tangles (1 μM RefA vs. 250 μM compound) [2] [%] | Selectivity (tau/Abeta) [2] [fold] | Competition on AD brain section Aβ plaques (1 μM Compound B vs 250 μM compound) [3] [%] |
| --- | --- | --- | --- | --- |
| Cn1c2ccncc2c2ccc(Nc3ccc(F)c(F)c3)nc21 [Example 2] | 22 | 96 | >96 | 0 |
| Cn1c2ccncc2c2ccc(Nc3cccc(OCCF)c3)nc21 [Example 8] | 26 | 90 | ~15 | 6 |
| Cn1c2ccncc2c2ccc(Nc3ccc(OC(F)F)cc3)nc21 [Example 9] | 7.8 | 97 | >97 | 0 |
